Where no end group is shown, it is not given here. [ ]: non-standard residue; d: D form. pS = N[C@@H](COP(=O)(O)O)C(=O)O

We go through two substances from patent US20090074680A1, “STATHERIN PEPTIDE AND USE IN MEDICINE” (QUEEN MARY & WESTFIELD COLLEGE, priority 2005, published 2009).

Assay [1] in a line: Scanning microradiography (SMR) of demineralisation of HAp blocks coated for 24 h with peptide. To be noted: for RDHAp of coated HAp compared to uncoated control: 24 h coating, StN21 0.75 to 3.76×10^−4 mol l^−1, lysozyme 0.11×10^−4 mol l^−1, pH 4.5; for rate of demineralisation of HAp (RDHAp): 0.1 mol l^−1 acetic acid pH 4.5, 3 weeks. From the text: HAp pellets are used in many studies instead of enamel blocks to prevent effect of enamel organic impurities and its natural surface on rate of demineralisation (Anderson et al., 2004). Statherin could not be isolated in a sufficiently pure form from saliva. Therefore N-terminal 21 residue fragment of statherin (StN21) was chemically synthesised using standard FastMoc synthesis (Fields et al., 1990). Also SXE motif, responsible for calcium binding in caseins, is present in this 21 amino-acid fragment of statherin. To exclude the possibility that StN21 act solely as a semi-permeable membrane, lysozyme was used as a negative control.
Hydroxyapatite (HAp) pellets of 20 wt % porosity (Plasma Biotal Ltd, UK) were sliced into 3×3 mm blocks with 2 mm thickness using Microslice 2 cutter (Malvern Instruments Ltd.). Entire surface of the block, except one side was coated with acid resistant nail varnish. Ten HAp blocks were put into a solution saturated with respect to HAp for 24 hours to equilibrate. After equilibration, four HAp blocks were exposed for 24 h to 0.5 ml of four different concentrations of StN21 peptide dissolved in modified buffer (100 mmol^−1 NaCl, 40 mmol^−1 KCl, 4.3 mmol^−1 Na2HPO4, and 1.4 mmol^−1 KH2PO4, pH 7.4). The concentrations of StN21 peptide were 0.75, 1.13, 1.88 and 3.76×10^−4 mol l^−1. As a negative control one HAp pellet was put into 0.5 ml of solution containing lysozyme at concentration of 0.11×10^−4 mol l^−1.
Scanning microradiography (SMR) is a technique for observing very subtle changes in mineral mass during re and demineralisation of enamel and HAp. It allows observation period of up to 1000 h without disruptions to the specimen. Also, conditions can be modified and the effect of applied modifications on the samples can be monitored. SMR (Anderson et al., 2004) is an X-ray photon counting technique where the intensity of 15 μm X ray beam is attenuated by passing through the specimen and the transmitted photons are counted by an X-ray detector.
HAp blocks were placed in the wells of SMR cells (FIG. 2). Each SMR cell contained one HAp block coated with protein and one as a control. As an additional control, in one SMR cell two uncoated HAp blocks were placed in one SMR cell. The reservoir of the SMR cell is approximately 1.2 ml and solution is circulating past the HAp blocks at 0.4 ml min^−1.
Demineralising solution was 0.1 mol l^−1 acetic acid, buffered to pH 4.5 with 1 mol l^−1 NaOH; 1 mmol l^−1 calcium and 0.6 mmol l^−1 phosphate ions.
SMR was used to monitor changes in mineral mass at 12 positions 10 μm apart, along 2 lines in each well. Scanning time was 30 s per position. Total period of observation was 3 weeks. The rate of mineral change at each position was calculated by linear least squares fitting.

Assay [2] in a line: SMR of demineralisation of HAp blocks after 3 min immersion(s) in STN21 solution. The following applies: STN21 1.88×10^−4 mol l^−1, pH 4.5. How it is done: STN21 was synthesised using Fmoc solid state synthesis. Hydroxyapatite (HAp) pellets were cut into 5×5×2 mm blocks and covered with acid-resistant varnish leaving one surface exposed and immersed in STN21 solution (1.88×10^−4 mol l^−1) for 3 min. The pellets were then located in scanning microradiography (SMR) cells. Demineralising solution (0.1 mol l^−1 acetic acid, pH 4.5) was circulated (0.4 ml min^−1) for 3 weeks.
Five samples were exposed to further twice daily 3 min. immersions in STN21 solution. Changes in mineral mass were measured using SMR for 28 days.

For assay [3] the following is noted: lysozyme bound to HAp surface; cited from earlier work.

Turning to “DpSpSEEKFLRRIGRFGYGYGPY (D[pS][pS]EEKFLRRIGRFGYGYGPY; UniProt P02808 20-40, looked up, fragment) [StN21, N-terminal fragment of statherin which consists of 21 amino acids; pS = phosphorylated serine]”, the “effect on RDHAp at lowest concentration” value in assay [1] (9.4×10^−6 molar, equivalent to 25 mg/litre) is recorded as “effective”. Further, the “RDHAp of coated HAp compared to uncoated control” value in assay [1] is recorded as “significantly lower”. In addition, the “rate of demineralisation of HAp (RDHAp)” value is 2.2 ×10^−5 g cm^−2 h^−1 in assay [1] (StN21 coating concentration 0.75×10^−4 mol l^−1, 24 h exposure); 1.9 ×10^−5 g cm^−2 h^−1 in assay [1] (StN21 coating concentration 1.13×10^−4 mol l^−1, 24 h exposure); 1.7 ×10^−5 g cm^−2 h^−1 in assay [1] (StN21 coating concentration 1.88×10^−4 mol l^−1, 24 h exposure); 1.8 ×10^−5 g cm^−2 h^−1 in assay [1] (StN21 coating concentration 3.76×10^−4 mol l^−1, 24 h exposure). In addition, in assay [2] (one 3 min period only), the “decrease in rate of mineral loss compared to a non-coated control” value is 17%. Further, the “decrease in demineralisation rate” value in assay [2] (repeated twice daily 3 min immersions) is recorded as 45%.
lysozyme [reference compound]: in assay [3], the “influence on rate of demineralisation of HAp” value was “does not influence rate of demineralisation of HAp”. In assay [1], the “RDHAp of coated HAp compared to uncoated control” value is on record as “very similar results to uncoated (control) blocks”.
